EC50 data for 30 molecules are collected here from patent US10196363B2, “Dihydropyrimidin-2-one compounds and medical use thereof” (JAPAN TOBACCO INC., priority 2014, dated 2019).

The EC50 is the midpoint of the concentration-response curve.

The target in assay [1] is T1, human RORγ (Homo sapiens, UniProt P51449).
T1 construct: human RORγ, from Ser253 to Lys518; expressed in transfected cells; host or cells: CHO cells (Chinese hamster ovary), transient co-transfection with pG5-Luc
T1 sequence (P51449 253-518): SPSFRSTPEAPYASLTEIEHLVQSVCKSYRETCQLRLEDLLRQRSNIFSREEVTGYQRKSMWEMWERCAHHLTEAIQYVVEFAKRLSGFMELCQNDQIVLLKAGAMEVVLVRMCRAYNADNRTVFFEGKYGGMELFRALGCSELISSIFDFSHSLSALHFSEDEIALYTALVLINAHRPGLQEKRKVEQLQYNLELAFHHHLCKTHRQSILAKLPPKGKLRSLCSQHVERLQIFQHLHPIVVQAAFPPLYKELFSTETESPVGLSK
Put plainly: In vitro assay of inhibitory effect against RORγ transcriptional activity (GAL4-hRORγ LBD luciferase reporter gene assay in CHO cells). The class given is cell-based. The following applies: GAL4-hRORγ LBD luciferase reporter, CHO cells; read-out: LUC EC50 hRORγ. The procedure, abridged: (§1)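 Luciferase signal, expressed relative to 0.2% DMSO vehicle as 100%, was the read-out after a 2-day compound exposure of CHO cells co-expressing a GAL4-RORγ LBD fusion and a GAL4-responsive reporter. EC50 values came from curve fitting, omitting points showing cytotoxicity.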

Assay [2] addresses T2, mouse RORγ (Mus musculus, UniProt P51450).
T2 construct: mouse RORγ, from Ile251 to Lys516; expressed in transfected cells; host or cells: CHO cells (Chinese hamster ovary), transient co-transfection with pG5-Luc
T2 sequence (P51450 251-516): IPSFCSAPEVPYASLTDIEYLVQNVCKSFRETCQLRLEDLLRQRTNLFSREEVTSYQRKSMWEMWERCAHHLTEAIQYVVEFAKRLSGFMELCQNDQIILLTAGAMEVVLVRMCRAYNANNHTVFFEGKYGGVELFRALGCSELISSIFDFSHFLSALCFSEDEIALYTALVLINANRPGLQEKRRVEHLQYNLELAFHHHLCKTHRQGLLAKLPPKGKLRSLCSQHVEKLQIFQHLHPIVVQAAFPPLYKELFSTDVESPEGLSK
Put plainly: In vitro assay of inhibitory effect against RORγ transcriptional activity (GAL4-mRORγ LBD luciferase reporter gene assay in CHO cells). The format is cell-based. The following applies: GAL4-mRORγ LBD luciferase reporter, CHO cells; read-out: LUC EC50 mRORγ. The procedure, abridged:
as §1
In general terms: Reporter assays use an easily measured gene product as a stand-in for the process of interest.

With `COC(=O)[C@H]1C[C@H](N2C=C(C(C)(C)CCCO)[C@](C)(c3ccc(CCC(C)(C)C)c(Cl)c3)NC2=O)C1` (single isomer, unassigned) [Example 191], the EC50 in assay [1] is 45 nM; in assay [2], 71 nM.

Consider `CC(C)C1=CN(C23C4C5C2C2C3C4C52C(=O)O)C(=O)N[C@@]1(C)c1ccc(CCC(C)(C)C)c(Cl)c1` (single isomer, unassigned) [Example 222], for which the values for the EC50 in assay [1] and in assay [2] were 20 nM and 40 nM, respectively.

As for `CC(C)C1=CN(C2CC3(CC(C(=O)O)C3)C2)C(=O)N[C@@]1(C)c1ccc(CCC(C)(C)C)c(Cl)c1` (single isomer, unassigned) [Example 232], the EC50 in assay [1] stood at 15 nM; in assay [2], 19 nM.

`CC(C)C1=CN(C2CC3(CC(C(=O)O)C3)C2)C(=O)N[C@@]1(C)c1ccc(CCC(C)(C)C)c(Cl)c1` (single isomer, unassigned) [Example 233]: the concentration giving a half-maximal response (EC50) in assay [1] came out at 69 nM; in assay [2], 72 nM.

As for `CC(C)C1=CN(C2CN(C(=O)OC(C)(C)C)CC2C(=O)O)C(=O)N[C@@]1(C)c1ccc(CCC(C)(C)C)c(Cl)c1` (single isomer, unassigned) [Example 237], the EC50 in assay [1] was 719 nM; in assay [2], 673 nM.

Turning to `CC(C)C1=CN(C2CNCC2C(=O)O)C(=O)N[C@@]1(C)c1ccc(CCC(C)(C)C)c(Cl)c1` (single isomer, unassigned) [Example 238], the EC50 stood at 715 nM in assay [1] and 666 nM in assay [2].

Turning to `CC(=O)N1CC(C(=O)O)C(N2C=C(C(C)C)[C@](C)(c3ccc(CCC(C)(C)C)c(Cl)c3)NC2=O)C1` (single isomer, unassigned) [Example 239], the EC50 was determined as 4560 nM in assay [1] and 3060 nM in assay [2].

As to `CC(C)C1=CN(C2CN(S(C)(=O)=O)CC2C(=O)O)C(=O)N[C@@]1(C)c1ccc(CCC(C)(C)C)c(Cl)c1` (single isomer, unassigned) [Example 240], the EC50 in assay [1] worked out at 108 nM; in assay [2], 147 nM.

For `CC(C)C1=CN(C2CCCC2C(=O)O)C(=O)N[C@@]1(C)c1ccc(CCC(C)(C)C)c(Cl)c1` (single isomer, unassigned) [Example 242], the 50% effective concentration (EC50) was found to be 78 nM in assay [1] and 58 nM in assay [2].

Turning to `CC(C)C1=CN(C2CCCC2C(=O)O)C(=O)N[C@@]1(C)c1ccc(CCC(C)(C)C)c(Cl)c1` (single isomer, unassigned) [Example 243], the figures for the 50% effective concentration (EC50) in assay [1] and in assay [2] were 1220 nM and 543 nM, respectively.

On to `CCOC(=O)C1CNCC1N1C=C(C(C)C)[C@](C)(c2ccc(CCC(C)(C)C)c(Cl)c2)NC1=O` (single isomer, unassigned) [Example 244], for which the figures for the EC50 in assay [1] and in assay [2] were 176 nM and 269 nM, respectively.

With `CCOC(=O)C1CNCC1N1C=C(C(C)C)[C@](C)(c2ccc(CCC(C)(C)C)c(Cl)c2)NC1=O` (single isomer, unassigned) [Example 245], the EC50 in assay [1] is 261 nM; in assay [2] it was 301 nM.

Turning to `CC(C)C1=CN(C2CCCC(C(=O)O)C2)C(=O)N[C@@]1(C)c1ccc(CCC(C)(C)C)c(Cl)c1` (single isomer, unassigned) [Example 254], the EC50 in assay [1] and in assay [2] was 28 nM in each case.

For `CC(C)C1=CN(C2CCCC(C(=O)O)C2)C(=O)N[C@@]1(C)c1ccc(CCC(C)(C)C)c(Cl)c1` (single isomer, unassigned) [Example 255], the EC50 came out at 273 nM in assay [1] and 296 nM in assay [2].

With `CC(C)C1=CN(C2CCCC(C(=O)O)C2)C(=O)N[C@@]1(C)c1ccc(CCC(C)(C)C)c(Cl)c1` (single isomer, unassigned) [Example 256], the concentration giving a half-maximal response (EC50) in assay [1] came out at 22 nM; in assay [2], 26 nM.

In the case of `CC(C)C1=CN(C2CCCC(C(=O)O)C2)C(=O)N[C@@]1(C)c1ccc(CCC(C)(C)C)c(Cl)c1` (single isomer, unassigned) [Example 257], the half-maximal effective concentration (EC50) was 165 nM in assay [1] and 115 nM in assay [2].

Take `COC1CC(C2=CN(c3ccc(C(=O)O)cc3)C(=O)N[C@@]2(C)c2ccc(CCC(C)(C)C)c(Cl)c2)C1` (single isomer, unassigned) [Example 276]: the concentration for a half-maximal effect (EC50) was 28 nM in assay [1] and 47 nM in assay [2].

`COC1CC(C2=CN(c3ccc(C(=O)O)cc3)C(=O)N[C@@]2(C)c2ccc(CCC(C)(C)C)c(Cl)c2)C1` (single isomer, unassigned) [Example 277]: the EC50 in assay [1] came out at 23 nM; in assay [2] it was 38 nM.

As for `CC(C)C1=CN(C2CCC(C(=O)O)C2)C(=O)N[C@@]1(C)c1ccc(CCC(C)(C)C)c(Cl)c1` (single isomer, unassigned) [Example 278], the half-maximal effective concentration (EC50) in assay [1] and in assay [2] was 13 nM each time.

As for `CC(C)C1=CN(C2CCC(C(=O)O)C2)C(=O)N[C@@]1(C)c1ccc(CCC(C)(C)C)c(Cl)c1` (single isomer, unassigned) [Example 279], the figures for the concentration for a half-maximal effect (EC50) in assay [1] and in assay [2] were 16 nM and 22 nM, respectively.

With `CC(C)C1=CN(C2CCC(C(=O)O)C2)C(=O)N[C@@]1(C)c1ccc(CCC(C)(C)C)c(Cl)c1` (single isomer, unassigned) [Example 280], the EC50 in assay [1] stood at 26 nM; in assay [2] it was 42 nM.

For the molecule `CC(C)(C)CCc1ccc([C@]2(C)NC(=O)N(C3CC(C)(C)C3)C=C2[C@H]2C[C@H](C(=O)O)C2)cc1Cl` (single isomer, unassigned) [Example 287], the EC50 was determined as 36 nM in assay [1] and 34 nM in assay [2].

In the case of `CC(C)C1=CN(CC(C)C(=O)O)C(=O)N[C@@]1(C)c1ccc(CCC(C)(C)C)c(Cl)c1` (single isomer, unassigned) [Example 299], the EC50 in assay [1] was 11 nM; in assay [2], 16 nM.

Regarding `CC(C)C1=CN(CC(C)C(=O)O)C(=O)N[C@@]1(C)c1ccc(CCC(C)(C)C)c(Cl)c1` (single isomer, unassigned) [Example 300], the EC50 in assay [1] was determined as 10 nM; in assay [2], 14 nM.

Consider `COCC(C)C1=CN(CCC(=O)O)C(=O)N[C@@]1(C)c1ccc(CCC(C)(C)C)c(Cl)c1` (single isomer, unassigned) [Example 305], for which the results for the EC50 in assay [1] and in assay [2] were 3 nM and 6 nM, respectively.

As to `COCC(C)C1=CN(CCC(=O)O)C(=O)N[C@@]1(C)c1ccc(CCC(C)(C)C)c(Cl)c1` (single isomer, unassigned) [Example 306], the half-maximal effective concentration (EC50) was 63 nM in assay [1] and 27 nM in assay [2].

In the case of `COCC(C)C1=CN(c2ccc(C(=O)O)cc2)C(=O)N[C@@]1(C)c1ccc(CCC(C)(C)C)c(Cl)c1` (single isomer, unassigned) [Example 307], the half-maximal effective concentration (EC50) came out at 5 nM in assay [1] and 13 nM in assay [2].

As to `COCC(C)C1=CN(c2ccc(C(=O)O)cc2)C(=O)N[C@@]1(C)c1ccc(CCC(C)(C)C)c(Cl)c1` (single isomer, unassigned) [Example 308], the results for the EC50 in assay [1] and in assay [2] were 32 nM and 25 nM, respectively.

On to `CC(C)C1=CN(CCC(=O)O)C(=O)N[C@@]1(C)c1ccc(CC(O)C(C)(C)C)c(Cl)c1` (single isomer, unassigned) [Example 310], for which the EC50 in assay [1] came out at 476 nM; in assay [2], 277 nM.

As to `CC(C)C1=CN(CCC(=O)O)C(=O)N[C@@]1(C)c1ccc(CC(O)C(C)(C)C)c(Cl)c1` (single isomer, unassigned) [Example 311], the EC50 in assay [1] stood at 86 nM; in assay [2], 94 nM.
